Legend:
[1] = Open field behavior; type: in vivo, mouse
Method: For combined locomotion/photometry experiments in the open field (OF) in tethered mice, a 50 × 50 cm arena was used. Fiber photometry was conducted using a Doric photometry rig combined with a filter/mirror minicube set (Doric Lenses), as above. […] Data were sampled at 122 Hz. […] Mice were habituated to the chamber for 3 consecutive days (30 minutes per day). On experimental days, locomotor activity was video recorded and synchronized with fiber photometry signal recording. The baseline DA signal was recorded for 20 minutes, then the mouse received i.p. injection of vehicle or DETQ (10 mg/kg) in interleaved sessions. Following injection, the DA signal was recorded for an additional 90 minutes. The OF chamber was cleaned with ethanol and water between mice. Recording sessions were repeated at 48 hours intervals. Mouse behavior as well as photometry signals were analyzed with a custom-written MATLAB script. Mouse locomotion was computed using the body center point of the animal. The center zone of the arena was defined automatically during behavior data analysis as the 25 × 25 cm square with the central point aligned to the center of the open field. The distance moved and time spent in the center zone were quantified in 10 minutes time bins and as the total during the 90 minutes after ip injections. To test the dose-dependent effects of DETQ on locomotion in untethered mice, mice were injected i.p. with vehicle, DETQ (3, 10 or 30 mg/kg) or cocaine (20 mg/kg) while their locomotor activity was recorded in an OF arena (60 x 60 cm) for 45 min. Videos were recorded with a Logitech C270 camera and analyzed with DeepLabCut (version 2.1.8.2)[84] on an existing open field network. Representative traces were generated with the Anymaze (v7.2) software (Stoelting Co.).

[2] = target: T1, mouse DA transporter (DAT) (Mus musculus, UniProt Q61327); test: Fast-scan cyclic voltammetry of DA release in striatal slices; settings: bath application: DETQ 200 nM; cocaine 5 µM
T1 construct: Lack of DETQ effect on the endogenous DA transporter; from tissue; host or cells: mouse striatal brain slices
T1 sequence (Q61327 whole entry): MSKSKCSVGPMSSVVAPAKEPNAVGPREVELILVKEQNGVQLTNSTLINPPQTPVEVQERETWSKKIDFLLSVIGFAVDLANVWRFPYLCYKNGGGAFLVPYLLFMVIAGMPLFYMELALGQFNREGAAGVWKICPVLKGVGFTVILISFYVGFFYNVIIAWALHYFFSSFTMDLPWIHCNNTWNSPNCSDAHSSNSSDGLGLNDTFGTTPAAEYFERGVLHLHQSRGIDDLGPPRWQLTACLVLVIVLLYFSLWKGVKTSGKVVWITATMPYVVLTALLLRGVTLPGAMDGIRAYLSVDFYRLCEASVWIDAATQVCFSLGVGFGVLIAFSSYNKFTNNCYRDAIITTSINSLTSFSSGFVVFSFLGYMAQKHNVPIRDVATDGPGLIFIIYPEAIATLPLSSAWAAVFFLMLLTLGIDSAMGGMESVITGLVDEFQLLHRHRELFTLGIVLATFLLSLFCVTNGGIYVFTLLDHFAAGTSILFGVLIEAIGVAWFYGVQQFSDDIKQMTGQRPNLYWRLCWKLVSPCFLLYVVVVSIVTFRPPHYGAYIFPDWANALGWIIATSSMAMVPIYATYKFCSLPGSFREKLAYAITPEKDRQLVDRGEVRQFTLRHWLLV
Method: Striatal DA release was measured using fast-scan cyclic voltammetry (FSCV) with a carbon fiber electrode (CFE; diameter 7 µm, length 50–100 µm) positioned approximately 100 µm below the surface of the slice. The CFE was scanned across a triangular waveform (−0.4 to +1.3 V, 400 V/s) at 10 Hz, and DA release was evoked by single-pulse electrical stimulation (30 µA, 0.5 ms) with an inter-stimulus interval of 180 s. DA release was evoked in the presence of DHBE (1 µM) to block nicotinic acetylcholine receptors. Peak background-subtracted DA oxidation current was measured at +0.6 V, and drugs were washed on after establishing a stable baseline.

[3] = target: dLight1.3b (Homo sapiens, UniProt P21728); test: DA titrations on dLight1.3b-expressing HEK293 cells (confocal fluorescence imaging); type: cell-based
Method: Cells were transfected at 50–60% confluency in glass-bottomed dishes (either individually or in 24-well plates) using the Effectene transfection kit (Qiagen) according to manufacturer instructions, and imaged 24–48 h after transfection. The Flp-In™ T-REx™ 293 cells (Thermo Fisher) with a stably integrated dLight1.3b cassette[48] were cultured as follows: the cells were cultured using HEK293T cell medium with the addition of Blasticidin (15 µg/ml) and Hygromycin B (200 µg/ml). To induce the expression of dLight1.3b, doxycycline (500 ng/ml) was added to the culture medium for 24–48 hours. Before imaging, cells were rinsed with 1 mL of Hank’s Balanced Salt Solution (HBSS, Life Technologies) supplemented with Ca^2+ (2 mM) and Mg^2+ (1 mM), and imaged at room temperature with a final HBSS volume of either 100 µL for each individual 1.5 cm glass bottom dish, or 500 µL for 24-well plates. Time-lapse imaging was performed on an inverted Zeiss LSM 800 confocal microscope using a 488 nm laser and a 40X oil-based objective. During imaging, ligands were added in bolus on the cells using a micropipette to reach the final specified concentrations of ligand over the cells. For quantification, except otherwise noted, regions of interest (ROI) were selected manually using the threshold function of Fiji to isolate the cell membrane. Sensor response (∆F/F) was calculated as the following: (F(t)-F_base)/F_base with F(t) being the ROI fluorescence value at each time point (t), and F_base being the mean fluorescence of the 10-time points immediately prior to ligand addition.

C[C@H]1c2cccc(C(C)(C)O)c2C[C@H](CO)N1C(=O)Cc1c(Cl)cccc1Cl [DETQ, 2-(2,6-dichlorophenyl)-1-((1S,3R)-3-(hydroxymethyl)-5-(2-hydroxypropan-2-yl)-1-methyl-3,4-dihydroisoquinolin-2(1H)-yl)ethan-1-one]
total locomotion or time spent in the center ([1]; tethered mice, DETQ 10 mg/kg): did not observe any effect | locomotion in open field ([1]; untethered mice, 45 min, DETQ 3, 10, 30 mg/kg i.p., cocaine 20 mg/kg): did not have a significant effect | decay constant (tau) of DA signals [2]: no effect | peak DA release [2]: no effect | maximal leftward shift in the EC50 of DA [3]: ~ 8 fold | sensor response to DETQ in the absence of DA [3]: could not trigger a response | effect on the DA sensitivity of dLight1.3b ([3]; D1-PAM 5 μM): strong positive allosteric effect | sensor fluorescence in the presence of sub-maximal DA ([3]; DA 100 nM, DETQ 100 nM): strong and significant increase | maximal fluorescent response to a saturating concentration of DA ([3]; DA 100 µM, wide range of DETQ concentrations): not affected | Kb ([3]; DA titrations with 1 nM to 450 nM DETQ, allosteric EC50 shift, read-out: allosteric affinity constant (Kb)): 0.054 µM | effect on sensor responses to noradrenaline (NE) ([3]; DETQ 50 nM): potentiation | α factor ([3]; allosteric EC50 shift fit): 8.6

From article PMC11219860, “A chemogenetic approach for dopamine imaging with tunable sensitivity” (Nature Communications, 2024)
